Molecular target: Huntingtin (Homo sapiens, UniProt P42858)
Sequence (P42858 whole entry): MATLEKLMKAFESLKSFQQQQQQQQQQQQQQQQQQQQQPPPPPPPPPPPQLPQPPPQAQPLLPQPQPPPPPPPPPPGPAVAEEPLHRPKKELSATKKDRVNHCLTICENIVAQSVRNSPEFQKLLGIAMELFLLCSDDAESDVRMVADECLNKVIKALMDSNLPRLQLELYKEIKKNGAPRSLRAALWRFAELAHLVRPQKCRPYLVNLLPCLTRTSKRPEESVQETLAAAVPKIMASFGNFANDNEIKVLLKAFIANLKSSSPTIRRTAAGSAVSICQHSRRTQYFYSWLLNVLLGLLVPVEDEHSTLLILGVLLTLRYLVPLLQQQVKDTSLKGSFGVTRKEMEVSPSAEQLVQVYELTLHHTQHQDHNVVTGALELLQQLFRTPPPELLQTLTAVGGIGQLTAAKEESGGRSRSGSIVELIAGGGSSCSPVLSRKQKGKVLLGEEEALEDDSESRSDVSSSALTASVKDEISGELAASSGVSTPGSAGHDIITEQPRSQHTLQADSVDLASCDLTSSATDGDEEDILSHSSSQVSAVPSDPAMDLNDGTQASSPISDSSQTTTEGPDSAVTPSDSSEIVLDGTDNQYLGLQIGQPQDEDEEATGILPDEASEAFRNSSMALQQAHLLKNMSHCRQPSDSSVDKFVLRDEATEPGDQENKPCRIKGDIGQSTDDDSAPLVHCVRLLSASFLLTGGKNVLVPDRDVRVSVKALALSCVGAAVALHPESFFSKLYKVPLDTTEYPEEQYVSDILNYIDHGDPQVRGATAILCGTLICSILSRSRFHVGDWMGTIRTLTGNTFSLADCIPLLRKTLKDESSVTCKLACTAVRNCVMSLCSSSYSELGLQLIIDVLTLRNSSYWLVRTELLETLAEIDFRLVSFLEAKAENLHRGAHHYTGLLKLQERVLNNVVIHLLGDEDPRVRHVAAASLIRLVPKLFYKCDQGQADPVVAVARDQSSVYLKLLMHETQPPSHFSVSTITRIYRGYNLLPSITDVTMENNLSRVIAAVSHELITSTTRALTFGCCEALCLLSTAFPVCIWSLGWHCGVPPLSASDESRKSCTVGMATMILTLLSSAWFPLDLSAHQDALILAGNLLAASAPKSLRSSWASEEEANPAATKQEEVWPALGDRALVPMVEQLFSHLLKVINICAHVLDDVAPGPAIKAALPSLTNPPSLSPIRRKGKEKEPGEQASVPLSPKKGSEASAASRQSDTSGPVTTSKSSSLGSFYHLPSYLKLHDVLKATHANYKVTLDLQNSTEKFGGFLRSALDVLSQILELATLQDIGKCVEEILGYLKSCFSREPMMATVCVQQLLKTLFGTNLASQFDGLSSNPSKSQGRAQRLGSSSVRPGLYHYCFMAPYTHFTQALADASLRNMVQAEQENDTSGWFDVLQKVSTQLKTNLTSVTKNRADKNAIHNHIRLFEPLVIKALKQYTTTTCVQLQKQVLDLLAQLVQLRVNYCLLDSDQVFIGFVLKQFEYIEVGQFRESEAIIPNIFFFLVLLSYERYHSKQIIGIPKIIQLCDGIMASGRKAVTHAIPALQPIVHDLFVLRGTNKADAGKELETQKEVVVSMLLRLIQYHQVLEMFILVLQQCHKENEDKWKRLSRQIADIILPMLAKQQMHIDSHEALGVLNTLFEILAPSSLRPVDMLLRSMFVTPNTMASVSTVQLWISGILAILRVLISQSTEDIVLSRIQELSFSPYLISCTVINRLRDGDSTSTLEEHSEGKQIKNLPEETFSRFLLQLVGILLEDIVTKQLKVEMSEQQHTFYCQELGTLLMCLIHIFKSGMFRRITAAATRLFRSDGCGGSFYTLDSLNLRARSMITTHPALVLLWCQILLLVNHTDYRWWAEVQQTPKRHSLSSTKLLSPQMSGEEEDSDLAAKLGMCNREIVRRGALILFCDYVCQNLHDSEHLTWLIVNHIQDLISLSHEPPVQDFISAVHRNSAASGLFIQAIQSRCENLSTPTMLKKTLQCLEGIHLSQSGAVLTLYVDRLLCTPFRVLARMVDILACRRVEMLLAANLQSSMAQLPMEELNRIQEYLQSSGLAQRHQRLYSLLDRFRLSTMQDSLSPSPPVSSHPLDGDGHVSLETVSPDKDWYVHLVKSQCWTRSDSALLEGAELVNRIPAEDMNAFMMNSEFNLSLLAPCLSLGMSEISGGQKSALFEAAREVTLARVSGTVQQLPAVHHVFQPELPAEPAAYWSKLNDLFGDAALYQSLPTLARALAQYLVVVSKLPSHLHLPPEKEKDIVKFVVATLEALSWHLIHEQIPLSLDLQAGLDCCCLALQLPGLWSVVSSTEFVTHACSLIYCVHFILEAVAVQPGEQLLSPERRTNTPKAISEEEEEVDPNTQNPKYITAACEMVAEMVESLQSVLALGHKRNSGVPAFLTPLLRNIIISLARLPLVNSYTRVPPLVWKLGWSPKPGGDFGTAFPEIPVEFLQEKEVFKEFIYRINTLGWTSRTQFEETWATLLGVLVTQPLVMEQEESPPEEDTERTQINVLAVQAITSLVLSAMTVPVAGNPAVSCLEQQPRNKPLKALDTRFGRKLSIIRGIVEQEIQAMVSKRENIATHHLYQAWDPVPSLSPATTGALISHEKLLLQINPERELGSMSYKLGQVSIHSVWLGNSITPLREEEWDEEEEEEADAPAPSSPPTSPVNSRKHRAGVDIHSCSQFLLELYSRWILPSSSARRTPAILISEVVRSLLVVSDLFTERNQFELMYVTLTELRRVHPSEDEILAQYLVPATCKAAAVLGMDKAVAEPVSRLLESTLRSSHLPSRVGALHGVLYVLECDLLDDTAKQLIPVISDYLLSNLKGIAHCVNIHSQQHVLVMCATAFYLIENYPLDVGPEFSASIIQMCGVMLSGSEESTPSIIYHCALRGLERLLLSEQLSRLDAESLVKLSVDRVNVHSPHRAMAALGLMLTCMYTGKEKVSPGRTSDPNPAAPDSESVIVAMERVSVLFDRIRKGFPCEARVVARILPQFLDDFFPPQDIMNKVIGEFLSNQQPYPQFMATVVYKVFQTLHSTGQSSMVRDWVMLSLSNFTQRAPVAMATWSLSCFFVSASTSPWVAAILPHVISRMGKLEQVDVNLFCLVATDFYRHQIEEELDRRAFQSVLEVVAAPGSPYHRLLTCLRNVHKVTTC

IC50	Structure (SMILES)
0.636 µM	COC(=O)c1sc(N2C(=O)C(=O)C(C(=O)c3ccc(C)o3)C2c2ccc([N+](=O)[O-])cc2)nc1C (stereo unspecified) [methyl 2-[4-hydroxy-3-(5-methylfuran-2-carbonyl)-2-(4-nitrophenyl)-5-oxo-2H-pyrrol-1-yl]-4-methyl-1,3-thiazole-5-carboxylate]
2.9 µM	COC1=CC(=Cc2c(-c3ccccc3)[nH]n(-c3ccc(NC(C)=O)cc3)c2=O)C=CC1=O [SMR000299432]
1.9 µM	CCc1nnc(NS(=O)(=O)c2ccc(N=CCC(=O)c3ccc(C)cc3)cc2)s1 [SMR000211931]
2.5 µM	Oc1ccc(CN=Nc2ccnc3cc(Cl)ccc23)c(O)c1O [SMR000590557]
5.19 µM	CC(=NNC(=N)Sc1cc(O)n(-c2cccc(Cl)c2)c1O)c1cccs1 [MLS000579124]
1.47 µM	N#CC1C(=O)NC(c2ccc(-c3cc(Cl)ccc3Cl)o2)N(c2ccccc2)C1=S (stereo unspecified) [MLS000592167]
6.14 µM	N#CC(C(=O)Nc1ccc(Cl)cc1)C(=S)Nc1ccccc1 (stereo unspecified) [(Z)-3-anilino-N-(4-chlorophenyl)-2-cyano-3-sulfanylprop-2-enamide]
2.89 µM	O=C(O)c1ccc(-n2c(O)cc(SC(=Nc3ccc(F)cc3)NCc3ccc4c(c3)OCO4)c2O)cc1 [SMR000313486]
8.27 µM	N=C(NN=Cc1cccs1)Sc1cc(O)n(-c2ccc(Br)cc2)c1O [[1-(4-bromophenyl)-2,5-dioxopyrrolidin-3-yl] N'-[(E)-thiophen-2-ylmethylideneamino]carbamimidothioate]
2.57 µM	C=c1c(C#N)c2[nH]c(N)c(C#N)c(C)c-2c1=Cc1ccc(-c2ccccc2C(=O)O)o1 [SMR000277284]

Continued, compound first:

Structure (SMILES)	IC50
Cc1[nH]n(C(N)=S)c(=O)c1N=Nc1c(Br)cc(Br)cc1Br [3-methyl-5-oxo-4-[(2,4,6-tribromophenyl)diazenyl]-4H-pyrazole-1-carbothioamide]	5.73 µM
Cc1ccc2nc(N3C(=O)C(=O)C(C(=O)c4ccco4)C3c3ccc(C)o3)sc2c1 (stereo unspecified) [3-[2-furanyl(oxo)methyl]-4-hydroxy-1-(6-methyl-1,3-benzothiazol-2-yl)-2-(5-methyl-2-furanyl)-2H-pyrrol-5-one;oxalic acid]	0.624 µM
CC(=O)C1C(=O)C(=O)N(c2cc(C(C)(C)C)on2)C1c1ccc(Br)cc1 (stereo unspecified)	2.49 µM
CC(C)c1ccc(C2c3[nH]c4ccccc4c3Cc3c(O)n(-c4ccccc4C(=O)N4CCC[C@H]4C(=O)O)c(=O)n32)cc1 (stereo partly specified)	3.35 µM
C=CCOc1c(OC)cc(CN=Nc2cccc(C(=O)O)c2)c(Br)c1Br	2.28 µM
CCN(CC)C(=O)NC1CC2CCCC(C1)N2Cc1ccccc1 (stereo unspecified) [1,1-diethyl-3-[9-(phenylmethyl)-9-azabicyclo[3.3.1]nonan-3-yl]urea]	2.83 µM
N#CC1=c2sc(=Cc3ccco3)c(=O)n2C(=N)C(C#N)C1c1ccco1 (stereo unspecified) [5-amino-7-(furan-2-yl)-2-(furan-2-ylmethylidene)-3-oxo-7H-[1,3]thiazolo[3,2-a]pyridine-6,8-dicarbonitrile]	5.38 µM
CCCOc1ccc(-n2c(O)cc(SC(=N)NN=C(C)c3cccs3)c2O)cc1 [2,5-dioxo-1-(4-propoxyphenyl)-3-pyrrolidinyl 2-[1-(2-thienyl)ethylidene]hydrazinecarbimidothioate]	7.76 µM
COc1ccc2nc(N3C(=O)C(=O)C(C(=O)c4ccco4)C3c3ccc(OC)c(OC)c3)sc2c1 (stereo unspecified) [2-(3,4-dimethoxyphenyl)-3-(furan-2-carbonyl)-4-hydroxy-1-(6-methoxy-1,3-benzothiazol-2-yl)-2H-pyrrol-5-one]	2.04 µM
N#CC(C#N)C(=Nc1ccc(F)cc1)SCc1cccc(Br)c1 [2-[(3-bromophenyl)methylsulfanyl-[(4-fluorophenyl)amino]methylidene]propanedinitrile]	7.57 µM
Cc1cc(N2C(=O)C(=O)C(C(=O)c3cc4ccccc4o3)C2c2cccc(Cl)c2)no1 (stereo unspecified) [3-(1-benzofuran-2-ylcarbonyl)-2-(3-chlorophenyl)-1-(5-methyl-1,2-oxazol-3-yl)-4-oxidanyl-2H-pyrrol-5-one]	1.19 µM
Cc1ccc2c(c1)C(=NNc1cccc(C(=O)O)c1)C(=O)N2C [3-[(2Z)-2-(1,5-dimethyl-2-oxidanylidene-indol-3-ylidene)hydrazinyl]benzoic acid]	5.07 µM
CCCOc1cccc(C2C(C(=O)c3ccc(C)o3)C(=O)C(=O)N2c2nc(C)c(C(C)=O)s2)c1 (stereo unspecified)	4.06 µM
CC(C)c1ccc(C2c3[nH]c4ccccc4c3Cc3c(O)n(-c4ccccc4C(=O)N4CCC[C@@H]4C(=O)O)c(=O)n32)cc1 (stereo partly specified)	2.84 µM
O=C1C(=O)N(c2nc3ccc(Cl)cc3s2)C(c2ccco2)C1C(=O)c1ccco1 (stereo unspecified)	0.987 µM
CCOC(=O)C1=C(C)N=C(SCc2cc(=O)[nH][nH]2)C(C#N)C1c1cccs1 (stereo unspecified) [5-cyano-2-methyl-6-[(5-oxo-1,2-dihydropyrazol-3-yl)methylthio]-4-thiophen-2-yl-1,4-dihydropyridine-3-carboxylic acid ethyl ester]	7.4 µM
